Reference: US11992481B2, “Use of 2-substituted indazoles for the treatment and prophylaxis of autoimmune diseases” (Bayer Pharma Aktiengesellschaft, priority 2016, dated 2024)

What follows are compounds tested on THP-1 cells (assay: TNF-α secretion in THP-1 cells (LPS-triggered)). Details: Homo sapiens, 0.05 μg/ml LPS, 17 h, read-out: IC50 with respect to the secretion of TNF-α in THP-1 cells.
Assay type: cell-based
Description: With the aid of this test, it is possible to test substances for their ability to inhibit secretion of TNF-α (tumour necrosis factor alpha) in THP-1 cells (human monocytic acute leukaemia cell line). […] In this test, TNF-α secretion is triggered by incubation with bacterial lipopolysaccharide (LPS).
The cells were incubated at room temperature for 15 min. 2-2.5 μl of 0.1 μg/ml LPS (Sigma, Escherichia coli 055:B5, Cat. No. L5418) dissolved in cell culture medium (final concentration 0.05 μg/ml) were then dispensed into each well. As neutral control, cells were treated with 0.05 μg/ml LPS and 1% DMSO and, as inhibitor control, with 1% DMSO only.
The amount of TNF-α was determined using the TNF-alpha HTRF Detection Kit (Cisbio, Cat. No. 62TNFPEB/C). To this end, 2 μl of the detection solution in each case, consisting of anti-TNF-α-XL665 conjugate and anti-TNF-α-cryptate conjugate dissolved in the reconstitution buffer in accordance with the manufacturer's instructions, were added for the HTRF (Homogeneous Time-Resolved Fluorescence) test. After the addition, the mixture was incubated either at room temperature for 3 h or at 4° C. overnight.
The activity of the substances is expressed as the ratio between neutral and inhibitor control in percent. The IC50 values were calculated using a 4-parameter fit.

SMILES | IC50
Cc1nc(C(=O)Nc2cc3cn(CCC(C)(C)O)nc3cc2C(C)(C)O)ccc1F [Example 19, 5-Fluoro-N-[2-(3-hydroxy-3-methylbutyl)-6-(2-hydroxypropan-2-yl)-2H-indazol-5-yl]-6-methylpyridine-2-carboxamide] | 0.1 nM
CC(C)(O)c1cc2nn(CCCOC(F)(F)F)cc2cc1NC(=O)c1cccc(C(F)(F)F)n1 [Example 17, N-{6-(2-Hydroxypropan-2-yl)-2-[3-(trifluoromethoxy)propyl]-2H-indazol-5-yl}-6-(trifluoromethyl)pyridine-2-carboxamide] | 0.5 nM
CC(C)(O)c1cc2nn(CCCO)cc2cc1NC(=O)c1cccc(C(F)F)n1 [Example 15, 6-(Difluoromethyl)-N-[6-(2-hydroxypropan-2-yl)-2-(3-hydroxypropyl)-2H-indazol-5-yl]pyridine-2-carboxamide] | 0.2 nM
CC(C)(O)c1cc2nn(CCCS(C)(=O)=O)cc2cc1NC(=O)c1cccc(C(F)(F)F)n1 [Example 10, N-{6-(2-Hydroxypropan-2-yl)-2-[3-(methylsulphonyl)propyl]-2H-indazol-5-yl}-6-(trifluoromethyl)pyridine-2-carboxamide] | 1 nM
CC(C)(O)c1cc2nn(CCS(C)(=O)=O)cc2cc1NC(=O)c1cccc(C(F)F)n1 [Example 14, 6-(Difluoromethyl)-N-{6-(2-hydroxypropan-2-yl)-2-[2-(methylsulphonyl)ethyl]-2H-indazol-5-yl}pyridine-2-carboxamide] | 0.2 nM
CC(C)(O)c1cc2nn(CCCO)cc2cc1NC(=O)c1cccc(C(F)(F)F)n1 [Example 6, N-[6-(2-Hydroxypropan-2-yl)-2-(3-hydroxypropyl)-2H-indazol-5-yl]-6-(trifluoromethyl)pyridine-2-carboxamide] | 0.9 nM
COCCn1cc2cc(NC(=O)c3cccc(C(F)(F)F)n3)c(C(C)(C)O)cc2n1 [Example 1, N-[6-(2-Hydroxypropan-2-yl)-2-(2-methoxyethyl)-2H-indazol-5-yl]-6-(trifluoromethyl)pyridine-2-carboxamide] | 1 nM
CC(C)(O)CCn1cc2cc(NC(=O)c3cccc(C(F)F)n3)c(C(C)(C)O)cc2n1 [Example 13, 6-(Difluoromethyl)-N-[2-(3-hydroxy-3-methylbutyl)-6-(2-hydroxypropan-2-yl)-2H-indazol-5-yl]pyridine-2-carboxamide] | 0.1 nM
CC(C)(O)c1cc2nn(CCCOCC(F)(F)F)cc2cc1NC(=O)c1cccc(C(F)(F)F)n1 [Example 18, N-{6-(2-Hydroxypropan-2-yl)-2-[3-(2,2,2-trifluoroethoxy)propyl]-2H-indazol-5-yl}-6-(trifluoromethyl)pyridine-2-carboxamide] | 0.3 nM
Cc1cccc(C(=O)Nc2cc3cn(CCC(C)(C)O)nc3cc2C(C)(C)O)n1 [Example 20, N-[2-(3-Hydroxy-3-methylbutyl)-6-(2-hydroxypropan-2-yl)-2H-indazol-5-yl]-6-methylpyridine-2-carboxamide] | 0.2 nM
CC(C)(O)c1cccc(C(=O)Nc2cc3cn(CCCC(F)(F)F)nc3cc2C(C)(C)O)n1 [Example 21, 6-(2-Hydroxypropan-2-yl)-N-[6-(2-hydroxypropan-2-yl)-2-(4,4,4-trifluorobutyl)-2H-indazol-5-yl]pyridine-2-carboxamide] | 1.8 nM
CC(C)(O)c1cc2nn(CCCC(F)(F)F)cc2cc1NC(=O)c1cccc(C(F)(F)F)n1 [Example 16, N-[6-(2-Hydroxypropan-2-yl)-2-(4,4,4-trifluorobutyl)-2H-indazol-5-yl]-6-(trifluoromethyl)pyridine-2-carboxamide] | 0.2 nM

More lines, now with the values ahead:

IC50 | SMILES
15.1 nM | COCCn1cc2cc(NC(=O)c3cccc(C(F)(F)F)n3)c(CO)cc2n1 [Example 2, N-[6-(Hydroxymethyl)-2-(2-methoxyethyl)-2H-indazol-5-yl]-6-(trifluoromethyl)pyridine-2-carboxamide]
5.6 nM | COCCCn1cc2cc(NC(=O)c3cccc(C(F)(F)F)n3)c(CO)cc2n1 [Example 4, N-[6-(Hydroxymethyl)-2-(3-methoxypropyl)-2H-indazol-5-yl]-6-(trifluoromethyl)pyridine-2-carboxamide]
16.4 nM | O=C(Nc1cc2cn(CCO)nc2cc1CO)c1cccc(C(F)(F)F)n1 [Example 7, N-[2-(2-Hydroxyethyl)-6-(hydroxymethyl)-2H-indazol-5-yl]-6-(trifluoromethyl)pyridine-2-carboxamide]
5.4 nM | CC(C)(O)c1cc2nn(CCO)cc2cc1NC(=O)c1cccc(C(F)(F)F)n1 [Example 5, N-[2-(2-Hydroxyethyl)-6-(2-hydroxypropan-2-yl)-2H-indazol-5-yl]-6-(trifluoromethyl)pyridine-2-carboxamide]
6.5 nM | O=C(Nc1cc2cn(CC3COC3)nc2cc1CO)c1cccc(C(F)(F)F)n1 [Example 9, N-[6-(Hydroxymethyl)-2-(oxetan-3-ylmethyl)-2H-indazol-5-yl]-6-(trifluoromethyl)pyridine-2-carboxamide]
1 nM | CC(C)(O)c1cc2nn(CC3COC3)cc2cc1NC(=O)c1cccc(C(F)(F)F)n1 [Example 8, N-[6-(2-Hydroxypropan-2-yl)-2-(oxetan-3-ylmethyl)-2H-indazol-5-yl]-6-(trifluoromethyl)pyridine-2-carboxamide]
